Data: ChEMBL document CHEMBL4359904, “Structural tuning of acridones for developing anticancer agents targeting dihydrofolate reductase” (Bioorg Med Chem Lett, 2019)
Active and inactive are the calls of the source. The calls are words filed in the database; no cut-off is given here.

What was measured:
[1] = system: TK-10; test: Growth inhibition of human TK10 cells incubated for 48 hrs by sulforhodamine B assay; type: functional; conditions: TK-10, 48 h
[2] = system: SR; test: Growth inhibition of human SR cells at 10^-5 M incubated for 48 hrs by sulforhodamine B assay relative to control; type: functional; conditions: read-out: GI
[3] = system: EKVX; test: Growth inhibition of human EKVX cells incubated for 48 hrs by sulforhodamine B assay; type: functional
[4] = system: OVCAR-8; test: Growth inhibition of human OVCAR8 cells incubated for 48 hrs by sulforhodamine B assay; type: functional; conditions: OVCAR-8, 48 h
[5] = system: SK-MEL-5; test: Growth inhibition of human SK-MEL-5 cells incubated for 48 hrs by sulforhodamine B assay; type: functional; conditions: SK-MEL-5, 48 h
[6] = system: CAKI-1; test: Growth inhibition of human Caki1 cells incubated for 48 hrs by sulforhodamine B assay; type: functional; conditions: CAKI-1, 48 h
[7] = system: SK-OV-3; test: Growth inhibition of human SKOV3 cells incubated for 48 hrs by sulforhodamine B assay; type: functional; conditions: SK-OV-3, 48 h
[8] = system: MCF7; test: Growth inhibition of human MCF7 cells incubated for 48 hrs by sulforhodamine B assay; type: functional; conditions: MCF7, 48 h
[9] = system: OVCAR-5; test: Growth inhibition of human OVCAR5 cells at 10^-5 M incubated for 48 hrs by sulforhodamine B assay relative to control; type: functional; conditions: OVCAR-5, 48 h, read-out: GI
[10] = system: KM12; test: Growth inhibition of human KM12 cells incubated for 48 hrs by sulforhodamine B assay; type: functional; conditions: KM12, 48 h
[11] = system: Hs-578T; test: Growth inhibition of human Hs578T cells incubated for 48 hrs by sulforhodamine B assay; type: functional
[12] = system: NCI-H322M; test: Growth inhibition of human NCI-H322M cells incubated for 48 hrs by sulforhodamine B assay; type: functional
[13] = system: UACC-62; test: Growth inhibition of human UACC62 cells incubated for 48 hrs by sulforhodamine B assay; type: functional; conditions: UACC-62, 48 h
[14] = system: SK-MEL-28; test: Growth inhibition of human SK-MEL-28 cells incubated for 48 hrs by sulforhodamine B assay; type: functional; conditions: SK-MEL-28, 48 h
[15] = system: HOP-62; test: Growth inhibition of human HOP62 cells incubated for 48 hrs by sulforhodamine B assay; type: functional; conditions: HOP-62, 48 h
[16] = system: OVCAR-4; test: Growth inhibition of human OVCAR4 cells incubated for 48 hrs by sulforhodamine B assay; type: functional; conditions: OVCAR-4, 48 h
[17] = system: HCT-15; test: Growth inhibition of human HCT15 cells incubated for 48 hrs by sulforhodamine B assay; type: functional; conditions: HCT-15, 48 h
[18] = biological target: T1, Dihydrofolate reductase (Homo sapiens) (UniProt P00374); test: Binding affinity to human dihydrofolate reductase at 5 uM assessed as decrease in absorption band by UV-visible spectroscopic analysis
T1 sequence (whole entry): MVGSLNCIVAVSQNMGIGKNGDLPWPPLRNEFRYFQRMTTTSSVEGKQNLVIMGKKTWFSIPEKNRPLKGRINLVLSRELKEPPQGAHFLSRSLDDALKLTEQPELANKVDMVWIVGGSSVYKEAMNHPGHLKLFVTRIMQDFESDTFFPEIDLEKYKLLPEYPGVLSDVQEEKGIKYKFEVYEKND

[19] = system: HOP-92; test: Growth inhibition of human HOP92 cells incubated for 48 hrs by sulforhodamine B assay; type: functional; conditions: HOP-92, 48 h
[20] = system: SR; test: Growth inhibition of human SR cells incubated for 48 hrs by sulforhodamine B assay; type: functional
[21] = system: NCI-H226; test: Growth inhibition of human NCI-H226 cells incubated for 48 hrs by sulforhodamine B assay; type: functional; conditions: NCI-H226, 48 h
[22] = system: COLO 205; test: Growth inhibition of human COLO205 cells incubated for 48 hrs by sulforhodamine B assay; type: functional; conditions: COLO 205, 48 h
[23] = system: Malme-3M; test: Growth inhibition of human MALME-3M cells incubated for 48 hrs by sulforhodamine B assay; type: functional
[24] = system: K562; test: Growth inhibition of human K562 cells incubated for 48 hrs by sulforhodamine B assay; type: functional; conditions: K562, 48 h
[25] = system: U-251; test: Growth inhibition of human U251 cells incubated for 48 hrs by sulforhodamine B assay; type: functional; conditions: U-251, 48 h
[26] = system: C6; test: Induction of morphological changes in rat C6 cells assessed as increase in total length of processes measured after 24 hrs by inverted microscopy analysis relative to control; type: functional
[27] = system: PC-3; test: Growth inhibition of human PC3 cells incubated for 48 hrs by sulforhodamine B assay; type: functional; conditions: PC-3, 48 h
[28] = system: MOLT-4; test: Growth inhibition of human MOLT4 cells at 10^-5 M incubated for 48 hrs by sulforhodamine B assay relative to control; type: functional; conditions: MOLT-4, 48 h, read-out: GI
[29] = system: T47D; test: Growth inhibition of human T47D cells incubated for 48 hrs by sulforhodamine B assay; type: functional
[30] = system: SF-295; test: Growth inhibition of human SF295 cells incubated for 48 hrs by sulforhodamine B assay; type: functional; conditions: SF-295, 48 h
[31] = system: C6; test: Cell cycle arrest in rat C6 cells assessed as cell population at G0/G1 phase measured after 24 hrs by propidium iodide staining based flow cytometry analysis; type: functional
[32] = read-out: pLC50 (the source's name) (converted)
[33] = read-out: LC50 (the source's name)

O=c1c2ccccc2n(CC2CO2)c2ccccc12 (racemic)
GI50 [1]: 479 nM
CC50 [1, 32]: > 100000 nM
TGI ([1]; read-out: pTGI (converted)): 3090 nM
inhibition of growth at 10 µM [2]: 91%
GI50 [3]: 1380 nM
CC50 [3, 32]: > 100000 nM
TGI ([3]; read-out: pTGI (converted)): 5010 nM
GI50 [4]: 148 nM
CC50 [4, 32]: > 100000 nM
TGI ([4]; read-out: pTGI (converted)): 1320 nM
GI50 [5]: 209 nM
CC50 [5, 32]: 1120 nM
TGI ([5]; read-out: pTGI (converted)): 468 nM
GI50 [6]: 174 nM
CC50 [6, 32]: > 100000 nM
TGI ([6]; read-out: pTGI (converted)): 692 nM
GI50 [7]: 1410 nM
CC50 [7, 32]: > 100000 nM
GI50 ([8]; read-out: GI50): 50 nM
CC50 [8, 33]: > 100000 nM
GI50 ([8]; read-out: pGI50 (converted)): 55 nM
CC50 [8, 32]: > 100000 nM
TGI ([8]; read-out: pTGI (converted)): 741 nM
inhibition of growth at 10 µM [9]: 100%
GI50 [10]: 269 nM
CC50 [10, 32]: 7760 nM
TGI ([10]; read-out: pTGI (converted)): 977 nM
GI50 [11]: 575 nM
CC50 [11, 32]: > 100000 nM
TGI ([11]; read-out: pTGI (converted)): 3890 nM
GI50 [12]: 2000 nM
CC50 [12, 32]: > 100000 nM
TGI ([12]; read-out: pTGI (converted)): 7760 nM
GI50 [13]: 234 nM
CC50 [13, 32]: 2400 nM
TGI ([13]; read-out: pTGI (converted)): 603 nM
GI50 [14]: 407 nM
CC50 [14, 32]: 11000 nM
TGI ([14]; read-out: pTGI (converted)): 1950 nM
GI50 [15]: 380 nM
CC50 [15, 32]: > 100000 nM
TGI ([15]; read-out: pTGI (converted)): 2750 nM
GI50 [16]: 813 nM
CC50 [16, 32]: > 100000 nM
TGI ([16]; read-out: pTGI (converted)): 3980 nM
GI50 [17]: 295 nM
CC50 [17, 32]: > 100000 nM
TGI ([17]; read-out: pTGI (converted)): 4570 nM
Activity [18]: Active
GI50 [19]: 324 nM
CC50 [19, 32]: > 100000 nM
TGI ([19]; read-out: pTGI (converted)): 3890 nM
GI50 ([20]; read-out: GI50): 50 nM
CC50 [20, 33]: > 100000 nM
GI50 ([20]; read-out: pGI50 (converted)): 50.1 nM
CC50 [20, 32]: > 100000 nM
TGI ([20]; read-out: pTGI (converted)): 1860 nM
GI50 [21]: 302 nM
CC50 [21, 32]: > 100000 nM
TGI ([21]; read-out: pTGI (converted)): 1480 nM
GI50 [22]: 245 nM
CC50 [22, 32]: 64600 nM
TGI ([22]; read-out: pTGI (converted)): 1410 nM
GI50 [23]: 589 nM
CC50 [23, 32]: 4900 nM
TGI ([23]; read-out: pTGI (converted)): 2000 nM
GI50 [24]: 214 nM
CC50 [24, 32]: > 100000 nM
TGI ([24]; read-out: pTGI): > 100000 nM
GI50 [25]: 282 nM
CC50 [25, 32]: > 100000 nM
TGI ([25]; read-out: pTGI (converted)): 1350 nM
Activity [26]: 16 - 18%
GI50 [27]: 331 nM
CC50 [27, 32]: > 100000 nM
TGI ([27]; read-out: pTGI (converted)): 4790 nM
inhibition of growth at 10 µM [28]: 100%
GI50 [29]: 891 nM
CC50 [29, 32]: > 100000 nM
TGI ([29]; read-out: pTGI (converted)): 5500 nM
GI50 [30]: 603 nM
CC50 [30, 32]: > 100000 nM
TGI ([30]; read-out: pTGI (converted)): 4270 nM
Activity [31]: inactive
